Source: the supplement of paper PMC11208160

Experiment: recombinant UMI read abundance after kanamycin selection (control-corrected) (log10(CPM+1)); higher = more efficient recombination; extreme values may be limits of the assay; sequences stand for … in AGTGCAGAGAAAATCGGCCAGTTTTCTCTGCCTGCAGTCCGCATGCCGTGGGACCCCTTGGGTTCTAACCTGTTGCCTAGATTTATGCAGCGGACTGCCTTTCTCCCAAAGTGATAAACCGG…AGGTTGGTTTCACT; site = the 11-nt donor
In short: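 After plating on IPTG (0.07 mM) plus kanamycin, or unselected, in two replicates, recombinant UMIs were PCR-amplified across the donor–target junction and sequenced. The cells were Escherichia coli co-electroporated with a UMI-tagged donor and donor-binding-loop pair library and a target plasmid with a fixed target and T7-inducible IS621 bridge recombinase. Values are log10(CPM+1), with CPM averaged over replicates and scaled by control-derived factors.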
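Note: IS621 bridge recombinase in Escherichia coli cells against a fixed T5 target plasmid.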

| Sequence | recombinant UMI read abundance (log10) |
| --- | --- |
| GAGTGGCCATGGACCGGTTTTCCCGGTAATCCGTATTTGCA (site GAGTGGCCTTG) | 0 |
| GAGTGGCCATGGACCGGTTTTCCCGGTAATCCGTATTTGCA (site GATTGGCCTTG) | 0 |
| GAGTTGGCATGGACCGGTTTTCCCGGTAATCCGTATTTGTA (site GAGTTGGCTTA) | 2.18 |
| GATAAGGCATGGACCGGTTTTCCCGGTAATCCGTATTTGCG (site GATAAGGCTCG) | 1.83 |
| GATAAGGCATGGACCGGTTTTCCCGGTAATCCGTATTTGGC (site GATAAGGCTGC) | 1.3 |
| GATATGCCATGGACCGGTTTTCCCGGTAATCCGTATTTGCT (site GATATGCCTAG) | 0 |
| GATCCACCATGGACCGGTTTTCCCGGTAATCCGTATTTGGT (site GATCCACCTAC) | 0.0102 |
| GATCGACCATGGACCGGTTTTCCCGGTAATCCGTATTTGTC (site GATCGACCTGA) | 0 |
| GATCGAGCATGGACCGGTTTTCCCGGTAATCCGTATTTGCA (site GATCGAGCTTG) | 1.04 |
| GATCGAGCATGGACCGGTTTTCCCGGTAATCCGTATTTGCA (site GCTCGAGCTTG) | 1.17 |
| GATCGAGCATGGACCGGTTTTCCCGGTAATCCGTATTTGCA (site GGTCGAGCTTG) | 1.15 |
| GATCGAGCATGGACCGGTTTTCCCGGTAATCCGTATTTGCA (site GTTCGAGCTTG) | 1.58 |
| GATCGTGCATGGACCGGTTTTCCCGGTAATCCGTATTTGGC (site GATCGTGCTGC) | 1.18 |
| GATCTAACATGGACCGGTTTTCCCGGTAATCCGTATTTGTC (site GATCTAACTGA) | 0 |
| GATCTGCCATGGACCGGTTTTCCCGGTAATCCGTATTTGAT (site GATCTGCCTAT) | 0.0121 |
| GATGAGACATGGACCGGTTTTCCCGGTAATCCGTATTTGAA (site GATGAGACTTT) | 1.82 |
| GATTAACCATGGACCGGTTTTCCCGGTAATCCGTATTTGCT (site GATTAACCTAG) | 0 |
| GATTAACCATGGACCGGTTTTCCCGGTAATCCGTATTTGCT (site GATTACCCTAG) | 0 |
| GATTAACCATGGACCGGTTTTCCCGGTAATCCGTATTTGCT (site GATTAGCCTAG) | 0 |
| GATTAACCATGGACCGGTTTTCCCGGTAATCCGTATTTGCT (site GATTATCCTAG) | 0.0295 |
| GATTAGCCATGGACCGGTTTTCCCGGTAATCCGTATTTGCT (site GATTAACCTAG) | 0 |
| GATTAGCCATGGACCGGTTTTCCCGGTAATCCGTATTTGCT (site GATTACCCTAG) | 0 |
| GATTAGCCATGGACCGGTTTTCCCGGTAATCCGTATTTGCT (site GATTAGCCTAG) | 0 |

| Sequence | recombinant UMI read abundance (log10) |
| --- | --- |
| GATTAGCCATGGACCGGTTTTCCCGGTAATCCGTATTTGCT (site GATTATCCTAG) | 0 |
| GATTATACATGGACCGGTTTTCCCGGTAATCCGTATTTGCT (site GATTATACTAG) | 1.87 |
| GATTATACATGGACCGGTTTTCCCGGTAATCCGTATTTGCT (site GATTATCCTAG) | 0 |
| GATTATACATGGACCGGTTTTCCCGGTAATCCGTATTTGCT (site GATTATGCTAG) | 0 |
| GATTATACATGGACCGGTTTTCCCGGTAATCCGTATTTGCT (site GATTATTCTAG) | 0 |
| GATTATCCATGGACCGGTTTTCCCGGTAATCCGTATTTGCA (site GATTATCCTAG) | 0 |
| GATTATCCATGGACCGGTTTTCCCGGTAATCCGTATTTGCA (site GATTATCCTCG) | 0 |
| GATTATCCATGGACCGGTTTTCCCGGTAATCCGTATTTGCA (site GATTATCCTGG) | 0 |
| GATTATCCATGGACCGGTTTTCCCGGTAATCCGTATTTGCA (site GATTATCCTTG) | 0 |
| GATTATCCATGGACCGGTTTTCCCGGTAATCCGTATTTGCG (site GATTATCCTAG) | 0 |
| GATTATCCATGGACCGGTTTTCCCGGTAATCCGTATTTGCG (site GATTATCCTCG) | 0.363 |
| GATTATCCATGGACCGGTTTTCCCGGTAATCCGTATTTGCG (site GATTATCCTGG) | 0 |
| GATTATCCATGGACCGGTTTTCCCGGTAATCCGTATTTGCG (site GATTATCCTTG) | 0 |
| GATTATTCATGGACCGGTTTTCCCGGTAATCCGTATTTGCT (site GATTATACTAG) | 0 |
| GATTATTCATGGACCGGTTTTCCCGGTAATCCGTATTTGCT (site GATTATCCTAG) | 0 |
| GATTATTCATGGACCGGTTTTCCCGGTAATCCGTATTTGCT (site GATTATGCTAG) | 0 |
| GATTATTCATGGACCGGTTTTCCCGGTAATCCGTATTTGCT (site GATTATTCTAG) | 1.96 |
| GATTCACCATGGACCGGTTTTCCCGGTAATCCGTATTTGCG (site GATTCACCTCG) | 0.00637 |
| GATTCCCCATGGACCGGTTTTCCCGGTAATCCGTATTTGGG (site TTAGGTTCTGA) | 0 |
| GATTCTCCATGGACCGGTTTTCCCGGTAATCCGTATTTGCT (site GATTATCCTAG) | 0 |
| GATTCTCCATGGACCGGTTTTCCCGGTAATCCGTATTTGCT (site GATTCTCCTAG) | 0.753 |
| GATTCTCCATGGACCGGTTTTCCCGGTAATCCGTATTTGCT (site GATTGTCCTAG) | 0 |
| GATTCTCCATGGACCGGTTTTCCCGGTAATCCGTATTTGCT (site GATTTTCCTAG) | 0 |

| Sequence | recombinant UMI read abundance (log10) |
| --- | --- |
| GATTGGACATGGACCGGTTTTCCCGGTAATCCGTATTTGGC (site GATTGGACTGA) | 0 |
| GATTGGACATGGACCGGTTTTCCCGGTAATCCGTATTTGGC (site GATTGGACTGC) | 1.65 |
| GATTGGACATGGACCGGTTTTCCCGGTAATCCGTATTTGGC (site GATTGGACTGG) | 0 |
| GATTGGACATGGACCGGTTTTCCCGGTAATCCGTATTTGGC (site GATTGGACTGT) | 1.63 |
| GATTGGCCATGGACCGGTTTTCCCGGTAATCCGTATTTGAC (site GATTGGACTGT) | 0 |
| GATTGGCCATGGACCGGTTTTCCCGGTAATCCGTATTTGAC (site GATTGGCCTGT) | 0 |
| GATTGGCCATGGACCGGTTTTCCCGGTAATCCGTATTTGAC (site GATTGGGCTGT) | 0 |
| GATTGGCCATGGACCGGTTTTCCCGGTAATCCGTATTTGAC (site GATTGGTCTGT) | 0 |
| GATTGGCCATGGACCGGTTTTCCCGGTAATCCGTATTTGCA (site GAATGGCCTTG) | 0 |
| GATTGGCCATGGACCGGTTTTCCCGGTAATCCGTATTTGCA (site GACTGGCCTTG) | 0 |
| GATTGGCCATGGACCGGTTTTCCCGGTAATCCGTATTTGCA (site GAGTGGCCTTG) | 0 |
| GATTGGCCATGGACCGGTTTTCCCGGTAATCCGTATTTGCA (site GATTGGCCTTG) | 0.00508 |
| GATTGGGCATGGACCGGTTTTCCCGGTAATCCGTATTTGAC (site GATTGGACTGT) | 0.803 |
| GATTGGGCATGGACCGGTTTTCCCGGTAATCCGTATTTGAC (site GATTGGCCTGT) | 0 |
| GATTGGGCATGGACCGGTTTTCCCGGTAATCCGTATTTGAC (site GATTGGGCTGT) | 1.51 |
| GATTGGGCATGGACCGGTTTTCCCGGTAATCCGTATTTGAC (site GATTGGTCTGT) | 0 |
| GATTGGTCATGGACCGGTTTTCCCGGTAATCCGTATTTGAC (site GATTGGACTGT) | 0 |
| GATTGGTCATGGACCGGTTTTCCCGGTAATCCGTATTTGAC (site GATTGGCCTGT) | 0 |
| GATTGGTCATGGACCGGTTTTCCCGGTAATCCGTATTTGAC (site GATTGGGCTGT) | 0 |
| GATTGGTCATGGACCGGTTTTCCCGGTAATCCGTATTTGAC (site GATTGGTCTGT) | 0 |
| GATTTGCCATGGACCGGTTTTCCCGGTAATCCGTATTTGGA (site GATTTGCCTTC) | 0.0059 |
| GATTTGGCATGGACCGGTTTTCCCGGTAATCCGTATTTGTG (site AATTTGGCTCA) | 0.142 |
